From the NIST ThermoML archive (doi:10.1007/s10765-008-0535-5)
Numbers after ± are expanded uncertainties.

Test: molar heat capacity at constant volume
Settings: Liquid, Vacuum adiabatic calorimetry

FCF [difluoromethane]
Settings	molar heat capacity at constant volume [J/K/mol]
268.15 K, 8268 kPa	49.47 ± 1.6
268.15 K, 8502 kPa	48.8 ± 1.6
269.15 K, 9280 kPa	49.32 ± 1.6
269.15 K, 9512 kPa	49.68 ± 1.6
270.15 K, 10291 kPa	49.47 ± 1.6
270.15 K, 10521 kPa	49.84 ± 1.6
271.15 K, 11302 kPa	49.42 ± 1.6
271.15 K, 11531 kPa	49.53 ± 1.6
272.15 K, 12312 kPa	49.94 ± 1.6
272.15 K, 12421 kPa	50.57 ± 1.6
272.15 K, 12540 kPa	49.06 ± 1.6
273.15 K, 13321 kPa	49.06 ± 1.6
273.15 K, 13429 kPa	49.79 ± 1.6
273.15 K, 13551 kPa	50.25 ± 1.6
274.15 K, 14330 kPa	49.94 ± 1.6
274.15 K, 14438 kPa	49.63 ± 1.6
274.15 K, 14560 kPa	49.37 ± 1.6
275.15 K, 15337 kPa	49.47 ± 1.6
275.15 K, 15444 kPa	49.84 ± 1.6
275.15 K, 15568 kPa	49.47 ± 1.6
276.15 K, 16344 kPa	49.89 ± 1.6
276.15 K, 16452 kPa	49.84 ± 1.6
276.15 K, 16577 kPa	49.73 ± 1.6
277.15 K, 17350 kPa	49.32 ± 1.6
277.15 K, 17457 kPa	49.63 ± 1.6
277.15 K, 17583 kPa	49.99 ± 1.6
278.15 K, 18354 kPa	49.89 ± 1.6
278.15 K, 18462 kPa	50.25 ± 1.6
278.15 K, 18589 kPa	49.47 ± 1.6
279.15 K, 19358 kPa	49.89 ± 1.6
279.15 K, 19465 kPa	49.79 ± 1.6
279.15 K, 19595 kPa	50.15 ± 1.6
280.15 K, 20361 kPa	49.63 ± 1.6
280.15 K, 20468 kPa	50.2 ± 1.6
280.15 K, 20598 kPa	49.99 ± 1.6
281.15 K, 21363 kPa	50.46 ± 1.6
281.15 K, 21470 kPa	49.63 ± 1.6
281.15 K, 21601 kPa	49.89 ± 1.6
282.15 K, 22363 kPa	49.58 ± 1.6
282.15 K, 22472 kPa	50.25 ± 1.6
282.15 K, 22602 kPa	50.05 ± 1.6
283.15 K, 23363 kPa	50.41 ± 1.6
283.15 K, 23473 kPa	50.15 ± 1.6
283.15 K, 23603 kPa	49.94 ± 1.6
284.15 K, 24362 kPa	50.31 ± 1.6
284.15 K, 24472 kPa	49.94 ± 1.6
284.15 K, 24606 kPa	50.25 ± 1.6
285.15 K, 25359 kPa	50.15 ± 1.6
285.15 K, 25470 kPa	50.51 ± 1.6
285.15 K, 25603 kPa	50.25 ± 1.6
286.15 K, 26356 kPa	50.51 ± 1.6
286.15 K, 26466 kPa	50.62 ± 1.6
286.15 K, 26598 kPa	50.2 ± 1.6
287.15 K, 27351 kPa	50.36 ± 1.6
287.15 K, 27461 kPa	50.2 ± 1.6
287.15 K, 27594 kPa	50.36 ± 1.6
288.15 K, 28345 kPa	50.57 ± 1.6
288.15 K, 28454 kPa	50.62 ± 1.6
288.15 K, 28588 kPa	50.41 ± 1.6
289.15 K, 5774 kPa	51.24 ± 1.7
289.15 K, 5835 kPa	49.79 ± 1.6
289.15 K, 29338 kPa	50.46 ± 1.6
289.15 K, 29446 kPa	50.72 ± 1.6
289.15 K, 29581 kPa	51.09 ± 1.7
290.15 K, 6570 kPa	50.62 ± 1.6
290.15 K, 6631 kPa	50.93 ± 1.7
291.15 K, 7365 kPa	51.14 ± 1.7
291.15 K, 7428 kPa	51.19 ± 1.7
292.15 K, 8161 kPa	51.24 ± 1.7
292.15 K, 8224 kPa	51.14 ± 1.7
293.15 K, 8956 kPa	51.4 ± 1.7
293.15 K, 9019 kPa	51.71 ± 1.7
294.15 K, 9752 kPa	51.66 ± 1.7
294.15 K, 9815 kPa	50.83 ± 1.7
295.15 K, 10546 kPa	51.19 ± 1.7
295.15 K, 10610 kPa	51.56 ± 1.7
296.15 K, 11341 kPa	51.19 ± 1.7
296.15 K, 11405 kPa	51.5 ± 1.7
297.15 K, 12135 kPa	51.61 ± 1.7
297.15 K, 12199 kPa	51.35 ± 1.7
298.15 K, 12929 kPa	51.5 ± 1.7
298.15 K, 12993 kPa	51.92 ± 1.7
299.15 K, 13723 kPa	51.66 ± 1.7
299.15 K, 13787 kPa	51.82 ± 1.7
300.15 K, 14517 kPa	51.66 ± 1.7
300.15 K, 14581 kPa	52.08 ± 1.7
301.15 K, 15309 kPa	52.34 ± 1.7
301.15 K, 15374 kPa	51.92 ± 1.7
302.15 K, 16102 kPa	52.08 ± 1.7
302.15 K, 16167 kPa	52.23 ± 1.7
303.15 K, 16894 kPa	52.13 ± 1.7
303.15 K, 16960 kPa	52.49 ± 1.7
304.15 K, 17685 kPa	52.13 ± 1.7
304.15 K, 17752 kPa	52.54 ± 1.7
305.15 K, 18476 kPa	52.75 ± 1.7
305.15 K, 18543 kPa	52.6 ± 1.7
306.15 K, 19267 kPa	52.75 ± 1.7
306.15 K, 19335 kPa	52.8 ± 1.7
307.15 K, 20125 kPa	52.49 ± 1.7
308.15 K, 20848 kPa	52.91 ± 1.7
308.15 K, 20915 kPa	52.8 ± 1.7
309.15 K, 21639 kPa	52.7 ± 1.7
309.15 K, 21704 kPa	53.32 ± 1.7
310.15 K, 22429 kPa	52.86 ± 1.7
310.15 K, 22492 kPa	53.12 ± 1.7
311.15 K, 23217 kPa	53.17 ± 1.7
311.15 K, 23281 kPa	53.69 ± 1.7
312.15 K, 24005 kPa	53.64 ± 1.7
312.15 K, 24068 kPa	53.79 ± 1.7
313.15 K, 24793 kPa	53.53 ± 1.7
313.15 K, 24855 kPa	53.79 ± 1.7
314.15 K, 25579 kPa	53.79 ± 1.7
314.15 K, 25641 kPa	53.43 ± 1.7
315.15 K, 26364 kPa	53.58 ± 1.7
315.15 K, 26427 kPa	54 ± 1.7
316.15 K, 27149 kPa	53.53 ± 1.7
316.15 K, 27212 kPa	54.68 ± 1.8
317.15 K, 27934 kPa	54.42 ± 1.8
317.15 K, 27996 kPa	54.21 ± 1.8
318.15 K, 28719 kPa	54.1 ± 1.8
318.15 K, 28779 kPa	54.78 ± 1.8
